Results taken from patent US20230114728A1 (Venatorx Pharmaceuticals, Inc., priority 2019, published 2023).
≈ marks a conversion by molar mass, not a printed value.

Test system: A. baumannii IL123 (ABΔ3-ARAEcPore)
Experiment: Broth microdilution MIC in iron-depleted CAMHB (IDM)
Format: cell-based
Settings: Acinetobacter baumannii, read-out: Minimum Inhibitory Concentration, IL-2123
Outline: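 CLSI broth microdilution in Chelex-treated cation-adjusted Mueller-Hinton broth, refortified with Ca, Mg and 10 μM ZnSO4, pH 7.3. Inoculum 2-8×10^5 CFU/mL; 37 °C for 16-20 h (Pseudomonas) or 20-24 h (Acinetobacter). MIC read visually as lowest concentration without growth.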

SMILES	MIC
O=C(NCCCN1CCN(C(=O)NC(C(=O)N[C@H]2Cc3cccc(C(=O)O)c3OB2O)c2ncc(O)cc2F)C(=O)C1=O)c1ccc(O)c(O)c1Cl (stereo partly drawn) [Example 1, (3R)-3-(2-(4-(3-(2-chloro-3,4-dihydroxybenzamido)propyl)-2,3-dioxopiperazine-1-carboxamido)-2-(3-fluoro-5-hydroxypyridin-2-yl)acetamido)-2-hydroxy-3,4-dihydro-2H-benzo[e][1,2]oxaborinine-8-carboxylic acid]	0.5 to 1 µg/mL (≈ 0.673 to 1.35 µM)
Nc1nc(/C(=N/OC[C@H](NC(=O)c2ccc(O)c(O)c2Cl)C(=O)O)C(=O)N[C@H]2Cc3cccc(C(=O)O)c3OB2O)cs1 [Example 6, (R)-3-((Z)-2-(2-aminothiazol-4-yl)-2-(((S)-2-carboxy-2-(2-chloro-3,4-dihydroxybenzamido)ethoxy)imino)acetamido)-2-hydroxy-3,4-dihydro-2H-benzo[e][1,2]oxaborinine-8-carboxylic acid]	32 to 64 µg/mL (≈ 50.5 to 101 µM)
Nc1nc(C(NC(=O)N2CCN(CCNC(=O)c3ccc(O)c(O)c3Cl)C(=O)C2=O)C(=O)N[C@H]2Cc3ccc(F)c(C(=O)O)c3OB2O)c(F)s1 (stereo partly drawn) [Example 4, (3R)-3-(2-(2-amino-5-fluorothiazol-4-yl)-2-(4-(2-(2-chloro-3,4-dihydroxybenzamido)ethyl)-2,3-dioxopiperazine-1-carboxamido)acetamido)-7-fluoro-2-hydroxy-3,4-dihydro-2H-benzo[e][1,2]oxaborinine-8-carboxylic acid]	32 to 64 µg/mL (≈ 42.6 to 85.1 µM)
O=C(NCCN1CCN(C(=O)NC(C(=O)N[C@H]2Cc3ccc(F)c(C(=O)O)c3OB2O)c2ncc(O)cc2F)C(=O)C1=O)c1c(F)cc(O)c(O)c1Cl (stereo partly drawn) [Example 5, (3R)-3-(2-(4-(2-(2-chloro-6-fluoro-3,4-dihydroxybenzamido)ethyl)-2,3-dioxopiperazine-1-carboxamido)-2-(3-fluoro-5-hydroxypyridin-2-yl)acetamido)-7-fluoro-2-hydroxy-3,4-dihydro-2H-benzo[e][1,2]oxaborinine-8-carboxylic acid]	2 to 4 µg/mL (≈ 2.61 to 5.23 µM)
